Holding throughout (assay type): cell-based, human
Assay [1] deals with IMR-90-4 hiPSCs. Nature of the assay: Immunostaining for pluripotency and lineage-specific markers after treatment. As to conditions: for Keratin 8 expression (immunostaining): UM+1 μM RA or UM+1 μM SU6656; for CDX2 protein expression (immunostaining): after 5 days incubation, 1 μM RA, 8 μM CHIR-99021, 1 μM SU6656 or RA+CHIR in UM or E6. The procedure: For differentiation, 70% confluent stem cells were rinsed with DPBS (Gibco) and pre-warmed Accutase was added to the wells. Cells were then placed at 37° C. for 5-7 minutes. Following incubation, cells were removed from the well with a p1000 pipette. The cells in Accutase solution were then added to a conical tube containing an equal volume of fresh media and spun down at 200×g for 5 minutes. The cells were then resuspended and seeded on Matrigel-coated plates at 6,000 cells/cm^2 in TeSR-E8 or mTeSR Plus with 5 μM ROCK inhibitor (Y-27632, Stem Cell Tech). Cells were maintained in E8 or mTeSR Plus for two more days, and then the medium was changed to unconditioned medium (UM): […] RA and/or CHIR were excluded in control experiments (FIG. 1), as described. Cell culture media was changed daily for five days. The induced multipotent placental cells produced by this method are termed iMPC1 cells (also referred herein, as iMPC1-D5 cells). As described herein, the cells may alternatively be exposed to RA+CHIR for 3 or 4 days. For example, iMPC1-D3 and iMPC1-D4, may also be produced wherein the cells are exposed to RA+CHIR for 3 and 4 days, respectively. For immunocytochemistry analysis, cells were rinsed 2× with PBS and then fixed for 10 minutes with 4% paraformaldehyde (PFA) at room temperature. […] Primary antibodies (Table 1A) were diluted into PBSGT and incubated on cells overnight at 4° C. Cells were washed 3× in PBST for 15 minutes, and then secondary antibodies (Table 1B) were diluted 1:500 in PBSGT and incubated on the cells for 1 hour at room temperature. Following a 10-minute PBS wash, cells were incubated with a DAPI solution for 10 minutes. Another 10-minute PBS wash was performed before the cells were imaged on an EVOS microscope.

For assay [2], the system named is IMR-90-4 hiPSCs. Nature of the assay: PCR and qRT-PCR of trophoblast cell marker transcripts and C19 miRNAs. As to conditions: for CDX2 mRNA transcript level (PCR / RT-PCR): after 5 days in UM with 1 μM RA, 8 μM CHIR, RA+CHIR or 1 μM SU6656; for CDX2 transcript level (qRT-PCR) / GATA3 transcript level (qRT-PCR) / KLF4 transcript level (qRT-PCR) / KRT7 transcript level (qRT-PCR): 5 days of incubation, compared to UM alone (FIG. 10). The procedure: For differentiation, 70% confluent stem cells were rinsed with DPBS (Gibco) and pre-warmed Accutase was added to the wells. Cells were then placed at 37° C. for 5-7 minutes. Following incubation, cells were removed from the well with a p1000 pipette. The cells in Accutase solution were then added to a conical tube containing an equal volume of fresh media and spun down at 200×g for 5 minutes. The cells were then resuspended and seeded on Matrigel-coated plates at 6,000 cells/cm^2 in TeSR-E8 or mTeSR Plus with 5 μM ROCK inhibitor (Y-27632, Stem Cell Tech). Cells were maintained in E8 or mTeSR Plus for two more days, and then the medium was changed to unconditioned medium (UM): […] RA and/or CHIR were excluded in control experiments (FIG. 1), as described. Cell culture media was changed daily for five days. The induced multipotent placental cells produced by this method are termed iMPC1 cells (also referred herein, as iMPC1-D5 cells). As described herein, the cells may alternatively be exposed to RA+CHIR for 3 or 4 days. For example, iMPC1-D3 and iMPC1-D4, may also be produced wherein the cells are exposed to RA+CHIR for 3 and 4 days, respectively. Cell pellets were collected and lysed using QiaShredder columns (Qiagen). RNA was isolated using the RNeasy Mini Kit (Qiagen) as the manufacturer recommends, including incubation with DNase I (RNAse-free DNase Set, Qiagen). Collected RNA was quantified using a NanoDrop. Reverse transcription was performed on 1000 ng RNA using the Omni script RT Kit (Qiagen). RNA with Oligo-dT primer (Life Tech) was denatured for 5 minutes at 65° C. before the remaining elements were added and incubated at 37° C. for 1 hour. Quantitative real time PCR (qRT-PCR) was performed using iTaq Universal SYBR Green Supermix (Bio Rad) as the manufacturer recommends. Primers (Table 2) were added at 250 nM each (forward and reverse). Analysis was performed on a Bio Rad CFX Connect Real-Time PCR system. GAPDH was used as a reference gene, and error was propagated using the […] method. PCR was performed identically as above through the reverse transcription step to generate cDNA. GoTaq Master Mix (Promega) was used for PCR per the manufacturer's instructions. Primers (Table 2) were added at […] each. PCR products were visualized on a 2% agarose gel containing SYBR Safe (Thermo Fisher) after electrophoresis at […] for 100 minutes. Gels were imaged using a ChemiDoc Touch Gel/Blot Reader (Bio Rad).
In general terms: Real-time PCR tracks product formation cycle by cycle.

For assay [3], the system named is IMR-90-4 hiPSCs. Description: Flow cytometry of CDX2, Oct-4, GATA3 and Keratin 7 in hiPSCs differentiated with RA and/or CHIR. As to conditions: 5 days in UM, 1 μM RA with or without 8 μM CHIR. On the procedure: For differentiation, 70% confluent stem cells were rinsed with DPBS (Gibco) and pre-warmed Accutase was added to the wells. Cells were then placed at 37° C. for 5-7 minutes. Following incubation, cells were removed from the well with a p1000 pipette. The cells in Accutase solution were then added to a conical tube containing an equal volume of fresh media and spun down at 200×g for 5 minutes. The cells were then resuspended and seeded on Matrigel-coated plates at 6,000 cells/cm^2 in TeSR-E8 or mTeSR Plus with 5 μM ROCK inhibitor (Y-27632, Stem Cell Tech). Cells were maintained in E8 or mTeSR Plus for two more days, and then the medium was changed to unconditioned medium (UM): DMEM/F12 with 20% Knockout serum replacement, MEM non-essential amino acids (1×), GlutaMAX (lx, Life Tech), and 0.1 mM β-mercaptoethanol (Sigma), containing 1 μM retinoic acid (RA, Sigma) and […] (Tocris). RA and/or CHIR were excluded in control experiments (FIG. 1), as described. Cell culture media was changed daily for five days. The induced multipotent placental cells produced by this method are termed iMPC1 cells (also referred herein, as iMPC1-D5 cells). […]
Cells were rinsed 2× with PBS and then pre-warmed Accutase was added to the wells. […] Plots shown are representative of a single independent replicate, but medians and standard deviations were calculated from three independent replicates.

Entries after “also recorded” stand apart in the source; their conditions may differ.

For `CN(C)S(=O)(=O)c1ccc2c(c1)/C(=C/c1cc3c([nH]1)CCCC3)C(=O)N2` [SU6656], the “Keratin 8 expression (immunostaining)” value with IMR-90-4 hiPSCs [1] (5 days) is listed as “expressed in all conditions”. Also, the “CDX2 protein expression (immunostaining)” value with IMR-90-4 hiPSCs [1] is recorded as “restricted to the RA condition”. Besides, in the assay on IMR-90-4 hiPSCs [2], the “CDX2 mRNA transcript level (PCR / RT-PCR)” value is reported as “restricted to the RA condition”.
`CC1=C(/C=C/C(C)=C/C=C/C(C)=C/C(=O)O)C(C)(C)CCC1` [RA, retinoic acid]: the “interquartile range (IQR) of CDX2 expression (flow cytometry)” value in the assay on IMR-90-4 hiPSCs [3] is listed as 119. Further, the “CDX2 median expression intensity (flow cytometry)” value with IMR-90-4 hiPSCs [3] (p<0.001) is on record as 1348±42. In the assay on IMR-90-4 hiPSCs [1] (1 μM RA in UM, 5 days), the “Keratin 18 (KRT18) expression (immunostaining)” value is listed as “gained expression” and the “Oct-4 expression (immunostaining)” value is on record as “lost expression”. For the same molecule, the “lowest concentration tested which resulted in CDX2 expression” value with IMR-90-4 hiPSCs [1] (5 days in UM, 0.1, 1 and 10 μM RA tested) came to 1 µM. In the assay on IMR-90-4 hiPSCs [1] (5 days), the “Keratin 8 expression (immunostaining)” value is reported as “expressed in all conditions”. Further, in the assay on IMR-90-4 hiPSCs [1], the “CDX2 protein expression (immunostaining)” value is on record as “gained expression; also recorded: restricted to the RA condition”. Further, in the assay on IMR-90-4 hiPSCs [2], the “CDX2 transcript level (qRT-PCR)” value is given as “upregulation”, the “GATA3 transcript level (qRT-PCR)” value was “upregulation”, the “KLF4 transcript level (qRT-PCR)” value was “upregulation” and the “KRT7 transcript level (qRT-PCR)” value is on record as “upregulation”. Further, the “CDX2 mRNA transcript level (PCR / RT-PCR)” value in the assay with IMR-90-4 hiPSCs [2] is “heightened expression; also recorded: restricted to the RA condition”.
As for `Cc1cnc(-c2cnc(NCCNc3ccc(C#N)cn3)nc2-c2ccc(Cl)cc2Cl)[nH]1` [CHIR-99021, 6-[[2-[[4-(2,4-Dichlorophenyl)-5-(5-methyl-1H-imidazol-2-yl)-2-pyrimidinyl]amino]ethyl]amino]-3-pyridinecarbonitrile], the “CDX2 protein expression (immunostaining)” value in the assay with IMR-90-4 hiPSCs [1] is given as “unable to induce CDX2 protein expression”. Also, in the assay with IMR-90-4 hiPSCs [2], the “CDX2 transcript level (qRT-PCR)” value is given as “upregulating”, the “GATA3 transcript level (qRT-PCR)” value was “compromised the expression”, the “KLF4 transcript level (qRT-PCR)” value is on record as “compromised the expression” and the “KRT7 transcript level (qRT-PCR)” value was “compromised the expression”. In addition, in the assay on IMR-90-4 hiPSCs [2], the “CDX2 mRNA transcript level (PCR / RT-PCR)” value is on record as “low levels of CDX2 expression”.

The values above are taken from patent US20230183643A1, “COMPOSITIONS AND METHODS FOR PRODUCING PLACENTAL CELLS” (Regents of the University of Minnesota, priority 2021, published 2023).
